According to patent publication US20230210802A1, “COMPOSITION FOR RELIEVING HANGOVER AND IMPROVING LIVER FUNCTION” (Zefit Inc., priority 2022, published 2023):

test system: zebrafish model showing an anesthetic effect by acute alcohol treatment; assay: Movement distance of zebrafish model with acute alcohol treatment (total distance, video tracking 20 minutes); assay type: in vivo; conditions: zebrafish larvae 7 dpf, ETOH 2%, omega-3 1.4 mg/L, B2 0.2 mg/L, B3 0.5 mg/L, values converted from FIG. 4
Experimental: First, each of omega-3 fatty acid (1.4 mg/L), riboflavin (vitamin B2) (0.2 mg/L), and nicotinamide (vitamin B3) (0.5 mg/L) was dissolved in E3 media to prepare a pre-treatment solution. A mixture of omega-3 fatty acid (1.4 mg/L), riboflavin (vitamin B2) (0.2 mg/L), and nicotinamide (vitamin B3) (0.5 mg/L) was dissolved in E3 media to prepare a pre-treatment solution. Each of omega-3 fatty acid (1.4 mg/L), riboflavin (vitamin B2) (0.2 mg/L), and nicotinamide (vitamin B3) (0.5 mg/L) was dissolved in ETOH 2% (in E3 media) to prepare a post-treatment solution. A mixture of omega-3 fatty acid (1.4 mg/L), riboflavin (vitamin B2) (0.2 mg/L), and nicotinamide (vitamin B3) (0.5 mg/L) was dissolved in ETOH 2% (in E3 media) to prepare a post-treatment solution. Zebrafish larvae at 7 days post-fertilization (dpf) were exposed in water to 200 μl/well of the pre-treatment solution for each group (n=20/group) in a 96-well plate for 1 hour. 1 zebrafish larva was in each well. After 1 hour of pre-treatment, the pre-treatment solution was replaced with 200 μl/well of the post-treatment solution for each group, followed by exposure in water. Subsequently, the behaviors of the zebrafish larvae were recorded for 20 minutes. After recording, the cumulative distances for each section (0-5 min, 5-10 min, 10-15 min, and 15-20 min) of the normal control and the experimental groups were analyzed, and the results thereof are shown in FIGS. 1 and 2. […]
Particularly, the behaviors of zebrafish larvae were recorded for 20 minutes, and after recording, the total distance for an experiment time of 20 minutes of each of the normal control and the experimental groups was analyzed, and the results thereof are shown in FIG. 4. […]

Molecule	Average value of total movement distance
NC(=O)c1cccnc1 [ETOH + B3, nicotinamide]	77.39 mm
riboflavin [ETOH + B2]	223.97 mm
omega-3 fatty acid [ETOH + Omega-3 fatty acid]	399.3 mm
